# Target: T1, Nuclear receptor ROR-gamma (Homo sapiens, UniProt P51449)
# T1 sequence (P51449 whole entry): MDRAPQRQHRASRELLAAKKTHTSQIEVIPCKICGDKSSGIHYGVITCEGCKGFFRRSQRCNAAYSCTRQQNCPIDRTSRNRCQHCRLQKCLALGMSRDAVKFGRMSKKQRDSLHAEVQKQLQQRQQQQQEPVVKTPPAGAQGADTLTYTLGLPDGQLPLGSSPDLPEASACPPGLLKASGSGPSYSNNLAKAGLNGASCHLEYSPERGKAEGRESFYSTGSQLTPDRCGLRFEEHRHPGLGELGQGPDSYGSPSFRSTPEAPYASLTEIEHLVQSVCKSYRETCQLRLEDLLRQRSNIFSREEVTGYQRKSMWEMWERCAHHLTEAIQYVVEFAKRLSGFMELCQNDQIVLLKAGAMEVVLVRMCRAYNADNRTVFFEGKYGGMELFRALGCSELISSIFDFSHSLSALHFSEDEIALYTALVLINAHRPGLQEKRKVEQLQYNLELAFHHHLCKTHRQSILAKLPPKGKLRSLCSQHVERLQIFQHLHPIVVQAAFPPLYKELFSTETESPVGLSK
# Assay: Binding Assay: Compounds of the present invention were tested for ability to bind to RORγ in a cell-free competition assay with commercially available radio-ligand (RL), 25-hydroxy [26,27-3H]— cholesterol (PerkinElmer, Cat. # NET674250UC), for a ligand binding site on a recombinant RORγ Ligand Binding Domain (LBD) protein expressed as a 6×His-Glutathione-S-Transferase (GST) fusion (“6×His” disclosed as SEQ ID NO: 2). The assay was performed in 96-well SPA plates (PerkinElmer, Cat. #1450-401) in 50 mM HEPES buffer, pH 7.4, containing 150 mM NaCl, 5 mM MgCl2, 10% (v/v) glycerol, 2 mM CHAPS, 0.5 mM β-octylglucopyranoside and 5 mM DTT. Tested compounds were dissolved in DMSO, and semi-log (3.162×) serial dilutions of the compounds were prepared in the same solvent. Two μL of the DMSO solutions were mixed with 28 μL of 8.6 nM 25-hydroxy [26,27-3H]— cholesterol and 50 μL of 24 nM RORγ LBD. The plate was shaken at 700 rpm for 20 min and incubated for 10 min at rt, after which 40 μL of poly-Lys YSi SPA beads (PerkinElmer, Cat. # RPNQ0010) were added to achieve 50 μg of the beads per well. The plate was incubated on an orbital shaker for 20 min and then for 10 min without agitation at rt. SPA signal for tritium beta radiation was registered on PerkinElmer Microbeta plate reader. […]
structure (smiles),measurement,value
CC(C)[C@H]1c2nc(NS(=O)(=O)c3cccc(C(F)(F)F)c3)sc2CN1Cc1ccc(Cl)cc1,Ki,> 1000 nM
